Measurements as given in patent US20250223331A1, “GLP-1/GIP DUAL-TARGETED POLYPEPTIDE AND FUSION PROTEIN AND APPLICATIONS THEREOF” (SUNSHINE LAKE PHARMA CO., LTD., priority 2021, published 2025).
Marks after values point to notes of the source that are not given here. Where no end group is shown, it is not given here.

How the values were obtained:
[1] = biological target: T1, GIPR (Homo sapiens, UniProt P48546); assay: cAMP assay, in vitro activity of polypeptides, HEK293-GIPR cells; format: cell-based; conditions: read-out: Ec50(nM) of the peptide GIPR
T1 construct: expressed in transfected cells; host or cells: HEK293 (pcDNA3.1, G418-selected single clone)
T1 sequence (P48546 22-466): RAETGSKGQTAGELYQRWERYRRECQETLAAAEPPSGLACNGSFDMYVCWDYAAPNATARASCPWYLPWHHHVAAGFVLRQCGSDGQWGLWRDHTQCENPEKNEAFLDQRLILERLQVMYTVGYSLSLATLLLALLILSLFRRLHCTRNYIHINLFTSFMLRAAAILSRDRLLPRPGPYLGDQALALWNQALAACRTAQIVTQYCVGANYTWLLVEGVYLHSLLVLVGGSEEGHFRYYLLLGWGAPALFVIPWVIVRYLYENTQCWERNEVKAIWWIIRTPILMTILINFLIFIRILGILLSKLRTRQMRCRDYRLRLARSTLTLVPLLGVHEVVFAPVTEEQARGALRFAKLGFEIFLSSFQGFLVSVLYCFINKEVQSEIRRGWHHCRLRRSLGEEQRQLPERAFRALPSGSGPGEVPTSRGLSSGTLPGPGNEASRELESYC
Method: (§1) The digested product was electrophoresed on 1% agarose gel and the target band was cut out with a clean blade, then a gel recovery kit was used to recover the target fragment. The specific experimental operations are carried out according to the kit instructions; • 3) The target fragment enzymatic digestion recovery product and vector plasmid pcDNA3.1 fragment were connected through T4 ligase and transformed into DH5a competent cells, then single colonies were isolated by spreading on plates, and the transformants were selected and expanded for enzyme digestion verification and sequencing verification. • 4) 200 mL of the bacterial liquid obtained in inoculation step 3) and verified by sequencing to contain the fusion protein of the target product was used for plasmid extraction. The kit used was PureLink HiPure Plasmid Maxiprep Kit, and according to the instructions. […] Finally, the ethanol precipitation method was used to recover the plasmid. • 5) The host cells were HEK293, one day before transfection, the cells were spread into a 6-well plate at a density of 2×10^6 cells/well, and the addition volume was 1 mL/well.
(§2) Using a cAMP detection kit (Cisbio, 62AM6PEC) to detect cAMP produced by the recipient cells according to the steps described in the operating instructions. […] If the mixture was not completely melted within 1.5 min, the cells were added dropwise to a 15 mL centrifuge tube containing 8 mL warm culture medium on a clean bench, then centrifuged at 900 rpm for 5 min, the supernatant was discarded, and the cells were re-suspended with 1 mL complete culture medium (15 times by pipetting).

[2] = biological target: GLP-1R (Homo sapiens, UniProt P43220); assay: cAMP assay, in vitro activity of polypeptides, HEK293-GLP-1R cells; format: cell-based; parameters: expressed in transfected cells; host or cells: HEK293 (pcDNA3.1, G418-selected single clone); conditions: for EC50: HEK293-GLP-1R, cAMP, read-out: Ec50(nM) of the peptide GLP-1R; for GLP-1R agonistic activity: peptides
GLP-1R, sequence (P43220 24-463, species assumed): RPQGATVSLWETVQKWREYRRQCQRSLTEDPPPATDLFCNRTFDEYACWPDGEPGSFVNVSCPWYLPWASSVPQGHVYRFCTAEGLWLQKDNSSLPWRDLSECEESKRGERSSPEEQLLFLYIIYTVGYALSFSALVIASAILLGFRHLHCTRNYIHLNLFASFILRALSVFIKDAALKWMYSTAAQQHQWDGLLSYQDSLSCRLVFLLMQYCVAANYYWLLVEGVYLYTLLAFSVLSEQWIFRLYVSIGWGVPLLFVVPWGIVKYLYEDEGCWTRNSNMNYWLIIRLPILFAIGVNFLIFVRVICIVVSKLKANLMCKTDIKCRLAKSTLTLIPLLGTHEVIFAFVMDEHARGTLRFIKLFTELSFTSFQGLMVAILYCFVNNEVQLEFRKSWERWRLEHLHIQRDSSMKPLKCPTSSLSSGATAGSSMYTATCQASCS
Method: as §1, §2

[3] = test system: db/db mice; assay: in vivo efficacy in db/db mouse model, blood glucose; conditions: 10 nmol/kg s.c.
Method: Methods: 7-8 week old db/db mice were randomly divided into 3 groups (Model group, Semaglutide group, HEC-G20 group) according to blood glucose and body weight, with 9 mice in each group. For the groups of Semaglutide (Semaglutide was purchased from Novo Nordisk, lot number was JP52092) and HEC-G20, the corresponding drug was administered subcutaneously into the mice at a dose of 10 nmol/kg for each group, and for the Model group, the corresponding vehicle was injected subcutaneously. The Semaglutide group was dosed once a day, and the HEC-G20 group was dosed twice a week for a total of 4 weeks, and animal blood glucose was tested before each dose.

[4] = test system: DIO mice; assay: in vivo efficacy in DIO model: body weight, food intake, liver, blood biochemistry
From the text: Experimental methods: C57/BL6 mice were randomly divided into normal group NFD and model group HFD at the fifth week of age, and the normal group was fed with ordinary maintenance diet, while the model group was fed with high-fat diet D12492. Changes in body weight and food intake in mice were monitored every 3 weeks. After 16 weeks of feeding, the body weight of mice in the model group and the normal group were (47.9±3.4) g and (29.6±1.5) g, respectively, and the difference between the two groups was statistically significant. The normal group was divided into the control group, and the model group mice that were successfully modeled were divided into Vehicle group, Semaglutide group, HEC-G115 group and HEC-G124 group, with 10 mice in each group. For the groups of Semaglutide, HEC-G115 and HEC-G124, the corresponding drug was injected subcutaneously in each group, and PBS was injected subcutaneously in the Vehicle group. […] Weight and food intake were measured before each dose. After 3 weeks of administration, an intraperitoneal glucose tolerance test was performed. After 72 h of the last administration, samples were collected, liver weight was recorded, and liver pathological status and blood biochemical indexes were detected in each group.

[5] = long-term administration 10 nmol/kg s.c., 72 h after last administration
[6] = long-term administration 10 nmol/kg s.c., blood biochemistry

YSEGTFTSDYSILLDKIAQREFIEWLIAGGPSSGAPPPS [CG122, YSEGTFTSDYSILLDKIAQREFIEWLIAG GPSSGAPPPS]
EC50 [1]: 0.016 nM
EC50 [2]: 0.191 nM

Semaglutide [reference compound]
Random blood glucose 1.5 h ([3]; 1.5 h): 15.9 ± 3.4 mM
Random blood glucose 5 h ([3]; 5 h): 15.4 ± 4.0 mM
Random blood glucose 7 h ([3]; 7 h): 16.3 ± 4.2 mM
Random blood glucose D 0 ([3]; Semaglutide once a day, HEC-G20 twice a week, D 0): 25.7 ± 3.7 mM
Random blood glucose D 3 ([3]; Semaglutide once a day, HEC-G20 twice a week, D 3): 11.6 ± 4.1 mM
Random blood glucose D 7 ([3]; Semaglutide once a day, HEC-G20 twice a week, D 7): 14.9 ± 4.2 mM
Random blood glucose D 10 ([3]; Semaglutide once a day, HEC-G20 twice a week, D 10): 17.1 ± 4.2 mM
Random blood glucose D 14 ([3]; Semaglutide once a day, HEC-G20 twice a week, D 14): 18.1 ± 3.1 mM
Random blood glucose D 17 ([3]; Semaglutide once a day, HEC-G20 twice a week, D 17): 18.5 ± 3.0 mM
Random blood glucose D 21 ([3]; Semaglutide once a day, HEC-G20 twice a week, D 21): 18.0 ± 3.3 mM
Random blood glucose D 24 ([3]; Semaglutide once a day, HEC-G20 twice a week, D 24): 19.9 ± 2.2 ^a mM
Cumulative food intake D 7-10 ([4]; 10 nmol/kg s.c. repeated, D 7-10): 15.7 g/pcs
Weight growth rate D 10 ([4]; 10 nmol/kg s.c. repeated, D 10): −17.6 ± 5.1%
Cumulative food intake D 11-13 ([4]; 10 nmol/kg s.c. repeated, D 11-13): 20.7 g/pcs
Weight growth rate D 13 ([4]; 10 nmol/kg s.c. repeated, D 13): −21.3 ± 5.8%
Cumulative food intake D 14-16 ([4]; 10 nmol/kg s.c. repeated, D 14-16): 27.9 g/pcs
Weight growth rate D 16 ([4]; 10 nmol/kg s.c. repeated, D 16): −22.3 ± 5.3%
Cumulative food intake D 17-19 ([4]; 10 nmol/kg s.c. repeated, D 17-19): 35.7 g/pcs
Weight growth rate D 19 ([4]; 10 nmol/kg s.c. repeated, D 19): −21.6 ± 5.6%
Cumulative food intake D 20-22 ([4]; 10 nmol/kg s.c. repeated, D 20-22): 41.8 g/pcs
Weight growth rate D 22 ([4]; 10 nmol/kg s.c. repeated, D 22): −24.2 ± 6.2%
Cumulative food intake D 23-27 ([4]; 10 nmol/kg s.c. repeated, D 23-27): 55.0 ^a g/pcs
Weight growth rate D 25 ([4]; 10 nmol/kg s.c. repeated, D 25): −23.2 ± 6.0^a %
Cumulative food intake D 0 ([4]; 10 nmol/kg s.c., D 0): 0.7 g/pcs
Weight growth rate D 0 ([4]; 10 nmol/kg s.c., D 0): 0.0 ± 0.0%
Cumulative food intake D 1 ([4]; 10 nmol/kg s.c., D 1): 1.8 g/pcs
Weight growth rate D 1 ([4]; 10 nmol/kg s.c., D 1): −5.3 ± 1.0%
Cumulative food intake D 2 ([4]; 10 nmol/kg s.c., D 2): 3.2 g/pcs
Weight growth rate D 2 ([4]; 10 nmol/kg s.c., D 2): −7.2 ± 1.2%
Cumulative food intake D 3 ([4]; 10 nmol/kg s.c., D 3): 5.3 g/pcs
Weight growth rate D 3 ([4]; 10 nmol/kg s.c., D 3): −8.2 ± 1.6%
Cumulative food intake D 4 ([4]; 10 nmol/kg s.c., D 4): 8.2 g/pcs
Weight growth rate D 4 ([4]; 10 nmol/kg s.c., D 4): −7.4 ± 2.8%
Cumulative food intake D 5 ([4]; 10 nmol/kg s.c., D 5): 10.2 g/pcs
Weight growth rate D 5 ([4]; 10 nmol/kg s.c., D 5): −6.7 ± 3.7%
Cumulative food intake D 6 ([4]; 10 nmol/kg s.c., D 6): 12.5 g/pcs
Weight growth rate D 6 ([4]; 10 nmol/kg s.c., D 6): −8.2 ± 3.8%
Weight growth rate D 7 ([4]; 10 nmol/kg s.c., D 7): −8.1 ± 4.7%
Liver ([4]; liver weight, long-term administration 10 nmol/kg s.c., 72 h after last administration): 1.0 ± 0.2 ^a g
Body weight [4, 5]: 33.0 ± 2.7^a g
Liver index [4, 5]: 3.0 ± 0.0 ^a %
ALT [4, 6]: 19.3 ± 4.3 ^a U/L
AST [4, 6]: 109.4 ± 9.2 ^a U/L
CHOL [4, 6]: 2.7 ± 0.4 ^a mmol/L
TRIGL [4, 6]: 0.7 ± 0.1 mmol/L

YSEGTFTSDYSILLDKIAQQEFIEWLIAGGPSSGAPPPS [CG135, YSEGTFTSDYSILLDKIAQQEFIEWLIAG GPSSGAPPPS]
EC50 [1]: 0.015 nM
EC50 [2]: 0.558 nM

YSEGTFTSDYSILLDKIAQRAFIEWLLAGGPSSGAPPPS [CG121, YSEGTFTSDYSILLDKIAQRAFIEWLLAG GPSSGAPPPS]
EC50 [1]: 0.018 nM
EC50 [2]: 0.322 nM

YSEGTFTSDYSILLDKIAQREFIEWLLAGGPSSGAPPPS [CG115, YSEGTFTSDYSILLDKIAQREFIEWLLAG GPSSGAPPPS]
EC50 [1]: 0.005 nM
EC50 [2]: 0.291 nM

YSEGTFTSDYSILLDKIAQQDFVEWLLAGGPSSGAPPPS [CG133, YSEGTFTSDYSILLDKIAQQDFVEWLLAG GPSSGAPPPS]
EC50 [1]: 0.017 nM
EC50 [2]: 8.18 nM
GLP-1R agonistic activity [2]: weaker GLP-1R agonistic activities

YSEGTFTSDYSILLDKKAQRDFIEWLLAGGPSSGAPPPS [CG127, YSEGTFTSDYSILLDKKAQRDFIEWLLAG GPSSGAPPPS]
EC50 [1]: 0.084 nM
EC50 [2]: 0.364 nM

YSEGTFTSDYSILLDKIAQREFVQWLIAGGPSSGAPPPS [CG124, YSEGTFTSDYSILLDKIAQREFVQWLIAG GPSSGAPPPS]
EC50 [1]: 0.041 nM
EC50 [2]: 0.232 nM

YSEGTFTSDYSILLDKKAQQDFIEWLIAGGPSSGAPPPS [CG137, YSEGTFTSDYSILLDKKAQQDFIEWLIAG GPSSGAPPPS]
EC50 [1]: 0.061 nM
EC50 [2]: 0.25 nM

YSEGTFTSDYSILLDKIAQRAFVQWLIAGGPSSGAPPPS [CG125, YSEGTFTSDYSILLDKIAQRAFVQWLIAG GPSSGAPPPS]
EC50 [1]: 0.073 nM
EC50 [2]: 0.205 nM

YSEGTFTSDYSILLDKKAQQDFIEWLLAGGPSSGAPPPS [CG136, YSEGTFTSDYSILLDKKAQQDFIEWLLAG GPSSGAPPPS]
EC50 [1]: 0.05 nM
EC50 [2]: 1.11 nM

YGEGTFTSDYSILLDKIAQREFIEWLLAGGPSSGAPPPS [CG126, YGEGTFTSDYSILLDKIAQREFIEWLLAG GPSSGAPPPS]
EC50 [1]: 0.027 nM
EC50 [2]: 0.918 nM

YSEGTFTSDYSILLDKIAQREFVQWLLAGGPSSGAPPPS [CG123, YSEGTFTSDYSILLDKIAQREFVQWLLAG GPSSGAPPPS]
EC50 [1]: 0.044 nM
EC50 [2]: 0.879 nM

YSEGTFTSDYSILLDKIAQQEFIEWLLAGGPSSGAPPPS [CG134, YSEGTFTSDYSILLDKIAQQEFIEWLLAG GPSSGAPPPS]
EC50 [1]: 0.012 nM
EC50 [2]: 2.15 nM
GLP-1R agonistic activity [2]: weaker GLP-1R agonistic activities
